We go through 26 compounds from US11111238B2, “Coumarin derivatives, processes for their preparation and uses thereof for the treatment of cancer” (Lead Discovery Center GmbH, priority 2017, dated 2021).

Molecules are shown by their SMILES.

The target in this assay is mitochondrial RNA-polymerase (POLRMT) (Mus musculus, UniProt Q8BKF1). Description: Homogeneous TR-FRET assay for mitochondrial transcription activity. Format: biochemical. Particulars: homogeneous TR-FRET assay according to Example 4; activity class. From the text: The TR-FRET assay was basically conducted as described in WO2016/193,231A1, especially as described in example 1 (hereby incorporated by reference). With respect to the background of the mitochondrial transcription it is referred to Falkenberg et al. (2002) and Posse et al. (Posse et al., 2015). The method monitors the activity of mitochondrial RNA-polymerase via detection of the formation of its product, a 407 bp long RNA sequence. Detection of the product is facilitated by hybridization of two DNA-oligonucleotide probes to specific and adjacent sequences within the RNA product sequence. Upon annealing of the probes, two fluorophores that are coupled directly to an acceptor nucleotide probe (ATT0647, 5′) or introduced via a coupled streptavidin interacting with a biotinylated donor nucleotide probe on the other side (Europium cryptate, 3′) are brought into sufficient proximity to serve as a fluorescence-donor-acceptor pair as generally described in Walters and Namchuk (2003). Thus, a FRET signal at 665 nm is generated upon excitation at 340 nm.
mitochondrial RNA-polymerase (POLRMT), sequence (Q8BKF1 42-1207): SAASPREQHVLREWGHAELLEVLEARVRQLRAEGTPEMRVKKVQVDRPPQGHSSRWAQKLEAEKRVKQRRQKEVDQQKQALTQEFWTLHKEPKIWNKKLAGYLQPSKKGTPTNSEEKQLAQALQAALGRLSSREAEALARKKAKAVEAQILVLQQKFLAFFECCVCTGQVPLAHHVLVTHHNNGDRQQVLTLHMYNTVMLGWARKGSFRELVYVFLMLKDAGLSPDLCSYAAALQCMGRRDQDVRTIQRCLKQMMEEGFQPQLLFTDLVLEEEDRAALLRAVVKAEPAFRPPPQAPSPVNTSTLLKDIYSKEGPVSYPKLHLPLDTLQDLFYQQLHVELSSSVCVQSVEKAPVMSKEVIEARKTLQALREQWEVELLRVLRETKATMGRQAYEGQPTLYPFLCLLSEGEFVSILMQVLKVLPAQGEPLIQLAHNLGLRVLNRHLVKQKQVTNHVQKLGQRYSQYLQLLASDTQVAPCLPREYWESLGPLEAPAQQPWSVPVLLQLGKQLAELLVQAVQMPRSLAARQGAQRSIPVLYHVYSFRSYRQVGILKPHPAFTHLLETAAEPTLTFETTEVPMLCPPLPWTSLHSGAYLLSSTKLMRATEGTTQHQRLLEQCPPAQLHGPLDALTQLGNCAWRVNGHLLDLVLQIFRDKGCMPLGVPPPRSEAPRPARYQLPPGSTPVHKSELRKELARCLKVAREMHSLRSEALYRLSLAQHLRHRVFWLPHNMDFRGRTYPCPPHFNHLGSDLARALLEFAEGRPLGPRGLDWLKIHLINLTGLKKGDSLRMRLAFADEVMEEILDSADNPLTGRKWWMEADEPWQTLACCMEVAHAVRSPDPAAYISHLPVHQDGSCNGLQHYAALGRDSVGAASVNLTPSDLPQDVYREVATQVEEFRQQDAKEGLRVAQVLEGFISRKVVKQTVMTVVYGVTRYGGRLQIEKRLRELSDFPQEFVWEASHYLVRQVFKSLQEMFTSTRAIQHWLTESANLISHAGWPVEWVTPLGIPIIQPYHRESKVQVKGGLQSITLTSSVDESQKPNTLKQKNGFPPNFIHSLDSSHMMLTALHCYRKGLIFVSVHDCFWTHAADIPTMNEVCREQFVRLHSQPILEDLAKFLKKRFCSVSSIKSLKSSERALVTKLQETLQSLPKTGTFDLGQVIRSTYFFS
Briefly, the protocol described here was applied for screening and activity determination in a low-volume 384-well microtiter plate with non-binding surface. For high-throughput application in the 1536-well microtiter plate format, volumes of the reagent mixes were adjusted, maintaining the volumetric ratio. Proteins POLRMT (NM_172551.3), TFAM (NM_009360.4) and TFB2 M (NM_008249.4) were diluted from their stocks to working concentrations of 150 nM, 1.8 μM and 330 nM respectively, in a dilution buffer containing 100 mM Tris-HCl pH 8.0, 200 mM NaCl, 10% (v/v) glycerole, 2 mM glutathione (GSH), 0.5 mM EDTA and 0.1 mg/mL BSA. Protein dilutions and template DNA, comprising a pUC18 plasmid encoding the mitochondrial light strand promoter, restriction linearized proximal to the promoter 3′-end (pUC-LSP), were mixed at the twofold final assay-concentration in a reaction buffer, containing 10 mM Tris-HCl pH 7.5, 10 mM MgCl2, 40 mM NaCl, 2 mM GSH, 0.01% (w/v) Tween-20 and 0.1 mg/mL BSA.
5 μL of this mix were dispensed, depending on the chosen microtiter plate format, using multi-channel pipettes or a Multidrop® dispenser (Thermo Fisher Scientific, Waltham Mass.) into the wells of a microtiter plate and incubated at room temperature (RT) for 10 min. Chemical compounds under scrutiny in the assay were applied using contact-free acoustic droplet-dispensing (Echo520® Labcyte Inc., Sunnyvale Calif.) from 10 mM compound stocks in 100% DMSO, to a final concentration of 10 μM or in serial dilution series of the required concentration range. Equal amounts of DMSO without any compound were added to positive control samples, followed by an incubation step at RT for 10 min.
The enzymatic reaction was started by the addition of 5 μL of a mix of […] in reaction buffer to a final concentration of 500 μM each. No nucleotide mix was added to negative control samples. The content of the wells was mixed using a VarioTeleshaker™ (Thermo Fisher Scientific, Waltham Mass.) at 1,500 rpm for 45 sec after which the microtiter plate was centrifuged at 500×g for 1 min. The samples were incubated for 2 h at RT with humidity control to avoid evaporation. The detection reagents were prepared in a buffer that was composed, such that the enzymatic reaction was terminated due to chelating of Mg-ions and increased ionic strength, containing 50 mM Tris-HCl pH 7.5, 700 mM NaCl, 20 mM EDTA, and 0.01% (w/v) Tween-20. Importantly Eu-cryptate-coupled streptavidin had to be pre-incubated with a 100-fold molar excess of a random sequence oligonucleotide for 10 min at RT in the dark to block unspecific binding of single stranded RNA to the protein. Subsequently, the blocked streptavidin(—Eu) was mixed with the DNA-probes on ice and kept away from light until use. […]

Consider `CCc1ccccc1-c1cc(=O)oc2cc(O[C@H](C)C(=O)N3CCC[C@H](C(=O)O)C3)ccc12` [Compound 134, (3S)-1-[(2R)-2-[4-(2-ethylphenyl)-2-oxo-chromen-7-yl]oxypropanoyl]piperidine-3-carboxylic acid], for which the IC50 is less than 20 nM. As for `C[C@@H](Oc1ccc2c(-c3ccccc3Cl)cc(=O)oc2c1)C(=O)N1CCC[C@H](CC(=O)O)C1` [Compound 103, 2-[(3R)-1-[(2R)-2-[4-(2-chlorophenyl)-2-oxo-chromen-7-yl]oxypropanoyl]-3-piperidyl]acetic acid], the IC50 was less than 20 nM. Under `CCOC(=O)C(C)Oc1ccc2c(-c3cccc(F)c3Cl)cc(=O)oc2c1` (centres unmarked) [Compound 57, ethyl 2-[4-(2-chloro-3-fluoro-phenyl)-2-oxo-chromen-7-yl]oxypropanoate] stands 20 to 100 nM; under `COC(=O)C1CCCN(C(=O)C(C)Oc2ccc3c(-c4ccccc4C)cc(=O)oc3c2)C1` (centres unmarked) [Compound 6, methyl 1-[2-[4-(o-tolyl)-2-oxo-chromen-7-yl]oxypropanoyl]piperidine-3-carboxylate], less than 20 nM; under `Cc1ccccc1-c1cc(=O)oc2cc(OC(C)C(=O)N3CCC(CC(=O)O)CC3)ccc12` (centres unmarked) [Compound 60, 2-[1-[2-[4-(o-tolyl)-2-oxo-chromen-7-yl]oxypropanoyl]-4-piperidyl]acetic acid], 20 to 100 nM.

Take `C[C@@H](Oc1ccc2c(-c3ccccc3Cl)cc(=O)oc2c1)C(=O)N1CCC[C@@H](CC(=O)O)C1` [Compound 102, 2-[(3S)-1-[(2R)-2-[4-(2-chlorophenyl)-2-oxo-chromen-7-yl]oxypropanoyl]-3-piperidyl]acetic acid]: the concentration for half-maximal inhibition (IC50) is less than 20 nM. Under `CCOC(=O)C(C)Oc1ccc2c(-c3ccccc3F)cc(=O)oc2c1` (centres unmarked) [Compound 175, ethyl 2-[4-(2-fluorophenyl)-2-oxo-chromen-7-yl]oxypropanoate] stands 100 to 1000 nM; under `Cc1ccccc1-c1cc(=O)oc2cc(OC(C)C(=O)N3CCC(S(N)(=O)=O)C3)ccc12` (centres unmarked) [Compound 63, 1-[2-[4-(o-tolyl)-2-oxo-chromen-7-yl]oxypropanoyl]pyrrolidine-3-sulfonamide], 20 to 100 nM. The figure for `COC(=O)C1CCN(C(=O)[C@@H](C)Oc2ccc3c(-c4ccc(F)cc4Cl)cc(=O)oc3c2)CC1` [Compound 129, methyl 1-[(2R)-2-[4-(2-chloro-4-fluoro-phenyl)-2-oxo-chromen-7-yl]oxypropanoyl]piperidine-4-carboxylate] is less than 20 nM.

In turn, `COCCc1ccc(NC(=O)[C@@H](C)Oc2ccc3c(-c4ccc(F)cc4Cl)cc(=O)oc3c2)cc1` [Compound 140, (2R)-2-[4-(2-chloro-4-fluoro-phenyl)-2-oxo-chromen-7-yl]oxy-N-[4-(2-methoxyethyl)phenyl]propanamide] showed an IC50 of 100 to 1000 nM.

`CCNC(=O)C(C)Oc1ccc2c(-c3cccc(F)c3Cl)cc(=O)oc2c1` (centres unmarked) [Compound 68, 2-[4-(2-chloro-3-fluoro-phenyl)-2-oxo-chromen-7-yl]oxy-N-ethyl-propanamide] returned an IC50 of 20 to 100 nM. Take `Cc1ccccc1-c1cc(=O)oc2cc(OC(C)C(=O)N3CCC(F)(F)CC3)ccc12` (centres unmarked) [Compound 71, 7-[2-(4,4-difluoro-1-piperidyl)-1-methyl-2-oxo-ethoxy]-4-(o-tolyl)chromen-2-one]: the IC50 fell in the range of 20 to 100 nM. Under `CC(Oc1ccc2c(-c3ccccc3Cl)cc(=O)oc2c1)C(=O)N1CCC(F)(F)CC1` (centres unmarked) [Compound 74, 4-(2-chlorophenyl)-7-[2-(4,4-difluoro-1-piperidyl)-1-methyl-2-oxo-ethoxy]chromen-2-one] stands 20 to 100 nM; under `COC(=O)c1cc(NC(=O)[C@@H](C)Oc2ccc3c(-c4ccc(F)cc4Cl)cc(=O)oc3c2)ccn1` [Compound 156, methyl 4-[[(2R)-2-[4-(2-chloro-4-fluoro-phenyl)-2-oxo-chromen-7-yl]oxypropanoyl]amino]pyridine-2-carboxylate], 20 to 100 nM; under `CC(Oc1ccc2c(-c3ccc(F)cc3Cl)cc(=O)oc2c1)C(=O)NC1CC1` (centres unmarked) [Compound 90, 2-[4-(2-chloro-4-fluoro-phenyl)-2-oxo-chromen-7-yl]oxy-N-cyclopropyl-propanamide], 20 to 100 nM. The figure for `Cc1ccccc1-c1cc(=O)oc2cc(OC(C)C(=O)N3CCC[C@H](C(=O)O)C3)ccc12` (stereo partly drawn) [Compound 3, (3S)-1-[2-[4-(o-tolyl)-2-oxo-chromen-7-yl]oxypropanoyl]piperidine-3-carboxylic acid] is less than 20 nM. The compound `C[C@@H](Oc1ccc2c(-c3ccc(F)cc3Cl)cc(=O)oc2c1)C(=O)Nc1ccnc(C(=O)O)c1` [Compound 160, 4-[[(2R)-2-[4-(2-chloro-4-fluoro-phenyl)-2-oxo-chromen-7-yl]oxypropanoyl]amino]pyridine-2-carboxylic acid] showed an IC50 of less than 20 nM. As to `Cc1ccccc1-c1cc(=O)oc2cc(OC(C)C(=O)N3CCCC(C#N)C3)ccc12` (centres unmarked) [Compound 41, 1-[2-[4-(o-tolyl)-2-oxo-chromen-7-yl]oxypropanoyl]piperidine-3-carbonitrile], the half-maximal inhibitory concentration (IC50) is less than 20 nM. The figure for `CC(Oc1ccc2c(-c3ccccc3Cl)cc(=O)oc2c1)C(=O)Nc1ccc(CCO)cc1` (centres unmarked) [Compound 35, 2-[4-(2-chlorophenyl)-2-oxo-chromen-7-yl]oxy-N-[4-(2-hydroxyethyl)phenyl]propanamide] is less than 20 nM; for `Cc1ccccc1-c1cc(=O)oc2cc(O[C@H](C)C(=O)N3CCC[C@H](C#N)C3)ccc12` [Compound 32, (3S)-1-[(2R)-2-[4-(o-tolyl)-2-oxo-chromen-7-yl]oxypropanoyl]piperidine-3-carbonitrile] it is less than 20 nM; for `COC(=O)C[C@H]1CCCN(C(=O)[C@@H](C)Oc2ccc3c(-c4ccccc4Cl)cc(=O)oc3c2)C1` [Compound 101, methyl 2-[(3R)-1-[(2R)-2-[4-(2-chlorophenyl)-2-oxo-chromen-7-yl]oxypropanoyl]-3-piperidyl]acetate] it is less than 20 nM. The figure for `C[C@@H](Oc1ccc2c(-c3ccccc3Cl)cc(=O)oc2c1)C(=O)N1CCC[C@H](C#N)C1` [Compound 28, (3S)-1-[(2R)-2-[4-(2-chlorophenyl)-2-oxo-chromen-7-yl]oxypropanoyl]piperidine-3-carbonitrile] is less than 20 nM; for `CC(C)OC(=O)[C@@H](C)Oc1ccc2c(-c3ccccc3Cl)cc(=O)oc2c1` [Compound 64, isopropyl (2R)-2-[4-(2-chlorophenyl)-2-oxo-chromen-7-yl]oxypropanoate] it is 20 to 100 nM; for `CC(Oc1ccc2c(-c3ccccc3Cl)cc(=O)oc2c1)C(=O)N1CCC[C@H](C(=O)N(C)C)C1` (stereo partly drawn) [Compound 76, (3S)-1-[2-[4-(2-chlorophenyl)-2-oxo-chromen-7-yl]oxypropanoyl]-N,N-dimethyl-piperidine-3-carboxamide] it is 20 to 100 nM.

For the compound `CCOC(=O)C1(C)CCCN(C(=O)C(C)Oc2ccc3c(-c4ccccc4Cl)cc(=O)oc3c2)C1` (centres unmarked) [Compound 75, ethyl 1-[2-[4-(2-chlorophenyl)-2-oxo-chromen-7-yl]oxypropanoyl]-3-methyl-piperidine-3-carboxylate], the IC50 was in the range of 20 to 100 nM. The compound `Cc1ccccc1-c1cc(=O)oc2cc(OC(C)C(=O)Nc3ccccn3)ccc12` (centres unmarked) [Compound 4, 2-[4-(o-tolyl)-2-oxo-chromen-7-yl]oxy-N-(2-pyridyl)propanamide] yielded an IC50 of less than 20 nM.
